From ChEMBL document CHEMBL5257089, “Gamabufotalin Induces Apoptosis and Cytoprotective Autophagy through the mTOR Signaling Pathway in Hepatocellular Carcinoma” (J Nat Prod, 2023)
The source made the active and inactive calls. The rule behind the calls is not given here.

What was measured:
[1] = test system: Huh-7; assay: Induction of apoptosis in human Huh-7 cells assessed as viable cells at 10 nM incubated for 48 hrs in presence of gamabufotalin by Annexin V-FITC/PI staining based flow cytometry method (reference value: 91.5%); assay type: functional; settings: read-out: Activity
[2] = test system: Huh-7; assay: Induction of apoptosis in human Huh-7 cells assessed as increase in PARP level at 10 nM incubated for 48 hrs in presence of gamabufotalin by immunoblot analysis; assay type: functional, cell-based
[3] = test system: Huh-7; assay: Induction of apoptosis in human Huh-7 cells assessed as late apoptotic cells at 10 nM incubated for 48 hrs in presence of gamabufotalin by Annexin V-FITC/PI staining based flow cytometry method (reference value: 4.7%); assay type: functional
[4] = test system: Huh-7; assay: Induction of apoptosis in human Huh-7 cells assessed as increase in bax level at 10 nM incubated for 48 hrs in presence of gamabufotalin by immunoblot analysis; assay type: functional, cell-based
[5] = test system: Huh-7; assay: Induction of autophagy in human Huh-7 cells assessed as reduction in ULK1 phosphorylation level incubated for 48 hrs by immunoblot method; assay type: functional, cell-based; settings: dose 0-25 nM
[6] = test system: Hep 3B2; assay: Induction of autophagic flux in human Hep3B cells harbouring mCherry-egfp-LC3 assessed as reduction in number of yellow puncta ratio at 25 nM incubated for 15 mins in presence of chloroquine by laser scanning confocal microscopic analysis; assay type: functional, cell-based
[7] = test system: Huh-7; assay: Induction of apoptosis in human Huh-7 cells assessed as late apoptotic cells at 25 nM incubated for 48 hrs in presence of 4,6-dimorpholino-N-(4-nitrophenyl)-1,3,5-triazin-2-amine by Annexin V-FITC/PI staining based flow cytometry method (reference value: 3.8%); assay type: functional
[8] = test system: Hep 3B2; assay: Induction of autophagy in human Hep3B cells assessed as rescue of mTOR phosphorylation level at upto 25 nM incubated for 48 hrs in presence of chloroquine by immunoblot method; assay type: functional, cell-based
[9] = test system: Hep 3B2; assay: Induction of apoptosis in human Hep3B cells assessed as fragmented nuclei at […] incubated for 48 hrs by Hoechst33258 staining based fluorescence microscopy; assay type: functional, cell-based
[10] = test system: Huh-7; assay: Induction of apoptosis in human Huh-7 cells assessed as viable cells at 25 nM incubated for 48 hrs in presence of chloroquine by Annexin V-FITC/PI staining based flow cytometry method (reference value: 91.5%); assay type: functional; settings: read-out: Activity
[11] = test system: Hep 3B2; assay: Induction of apoptosis in human Hep3B cells assessed as condensed nuclei at […] incubated for 48 hrs by Hoechst33258 staining based fluorescence microscopy; assay type: functional, cell-based
[12] = test system: Huh-7; assay: Induction of autophagy in human Huh-7 cells assessed as restoration of mTOR phosphorylation expression at 25 uM incubated for 48 hrs in presence of 4,6-dimorpholino-N-(4-nitrophenyl)-1,3,5-triazin-2-amine by immunoblot analysis; assay type: functional, cell-based
[13] = test system: Hep 3B2; assay: Induction of apoptosis in human Hep3B cells assessed as increase in cleaved bax level at 25 nM incubated for 48 hrs in presence of chloroquine by immunoblot analysis; assay type: functional, cell-based
[14] = test system: Huh-7; assay: Induction of apoptosis in human Huh-7 cells assessed as early apoptotic cells at 25 nM incubated for 48 hrs by Annexin V-FITC/PI staining based flow cytometry method (reference value: 2.8%); assay type: functional
[15] = test system: Hep 3B2; assay: Induction of autophagy in human Hep3B cells assessed as upregulation of p62 at 25 uM incubated for 48 hrs in presence of 4,6-dimorpholino-N-(4-nitrophenyl)-1,3,5-triazin-2-amine by immunoblot analysis; assay type: functional, cell-based
[16] = test system: Hep 3B2; assay: Induction of apoptosis in human Hep3B cells assessed as necrotic cells at 25 nM incubated for 48 hrs by Annexin V-FITC/PI staining based flow cytometry method (reference value: 0.7%); assay type: functional
[17] = test system: Hep 3B2; assay: Induction of apoptosis in human Hep3B cells assessed as late apoptotic cells at 20 nM incubated for 48 hrs by Annexin V-FITC/PI staining based flow cytometry method (reference value: 2.6%); assay type: functional
[18] = test system: Hep 3B2; assay: Induction of apoptosis in human Hep3B cells assessed as increase in cleaved PARP level at 25 nM incubated for 48 hrs in presence of chloroquine by immunoblot analysis; assay type: functional, cell-based
[19] = test system: Huh-7; assay: Induction of apoptosis in human Huh-7 cells assessed as necrotic cells at 25 nM measured after 48 hrs by annexin V-FITC/Propidium iodide staining based flow cytometric analysis (reference value: 0.0%); assay type: functional
[20] = test system: Huh-7; assay: Induction of apoptosis in human Huh-7 cells assessed as increase in cleaved bax level at 25 nM incubated for 48 hrs in presence of chloroquine by immunoblot analysis; assay type: functional, cell-based
[21] = test system: Huh-7; assay: Induction of apoptosis in human Huh-7 cells assessed as condensed nuclei at upto 25 uM incubated for 48 hrs by Hoechst33258 staining based fluorescence microscopy; assay type: functional, cell-based
[22] = test system: Hep 3B2; assay: Antitumor activity against human Hep3B cells xenografted in nude mouse model assessed as downregulation of P62 expression at 5 mg/kg,ip administered every second day for 3 weeks by Western blot analysis; assay type: functional, organism-based
[23] = test system: Hep 3B2; assay: Induction of apoptosis in human Hep3B cells assessed as reduction in Bcl-2 level at 25 nM incubated for 48 hrs in presence of chloroquine by immunoblot analysis; assay type: functional, cell-based
[24] = test system: Huh-7; assay: Induction of apoptosis in human Huh-7 cells assessed as necrotic cells at 25 nM incubated for 48 hrs by Annexin V-FITC/PI staining based flow cytometry method (reference value: 95.4%); assay type: functional
[25] = test system: Huh-7; assay: Induction of apoptosis in human Huh-7 cells assessed as viable cells at 25 nM incubated for 48 hrs in presence of 4,6-dimorpholino-N-(4-nitrophenyl)-1,3,5-triazin-2-amine by Annexin V-FITC/PI staining based flow cytometry method (reference value: 90.0%); assay type: functional; settings: read-out: Activity
[26] = test system: Hep 3B2; assay: Induction of apoptosis in human Hep3B cells assessed as viable cells at 20 nM incubated for 48 hrs by Annexin V-FITC/PI staining based flow cytometry method (reference value: 93.3%); assay type: functional; settings: read-out: Activity
[27] = test system: Huh-7; assay: Induction of apoptosis in human Huh-7 cells assessed as increase in PARP level at 25 nM incubated for 48 hrs in presence of chloroquine by immunoblot analysis; assay type: functional, cell-based
[28] = test system: Hep 3B2; assay: Antiproliferative activity against human Hep3B cells assessed as cell viability incubated for 24 hrs by CCK-8; assay type: functional, cell-based
[29] = test system: Huh-7; assay: Induction of autophagy in human Huh-7 cells assessed as rescue of mTOR phosphorylation level at upto 25 nM incubated for 48 hrs in presence of chloroquine by immunoblot method; assay type: functional, cell-based
[30] = test system: Huh-7; assay: Induction of morphological changes in human Huh-7 cells assessed as adherent cells at upto 25 nM incubated for 48 hrs by bright field imaging analysis; assay type: functional, cell-based
[31] = test system: Huh-7; assay: Induction of apoptosis in human Huh-7 cells assessed as upregulation of PARP level […] incubated for 48 hrs in presence of 4,6-dimorpholino-N-(4-nitrophenyl)-1,3,5-triazin-2-amine by immunoblot analysis; assay type: functional, cell-based
[32] = test system: Huh-7; assay: Induction of apoptosis in human Huh-7 cells assessed as necrotic cells at 25 nM incubated for 48 hrs by Annexin V-FITC/PI staining based flow cytometry method (reference value: 0.7%); assay type: functional
[33] = test system: Hep 3B2; assay: Induction of apoptosis in human Hep3B cells assessed as viable cells at 25 nM measured after 48 hrs by annexin V-FITC/Propidium iodide staining based flow cytometric analysis (reference value: 95.6%); assay type: functional; settings: read-out: Activity
[34] = test system: Hep 3B2; assay: Induction of apoptosis in human Hep3B cells assessed as viable cells at 15 nM incubated for 48 hrs by Annexin V-FITC/PI staining based flow cytometry method (reference value: 93.3%); assay type: functional; settings: read-out: Activity

`CCN(CC)CCCC(C)Nc1ccnc2cc(Cl)ccc12` (centres undefined) [CHLOROQUINE] was tested, and the viability at 0.01 µM [1] was 65.4%, the Activity [2] was “Active” and the Activity [3] was 19.1%. The Activity [4] was “Active”.
With `C[C@]12CC[C@H](O)C[C@H]1CC[C@@H]1[C@@H]2[C@H](O)C[C@]2(C)[C@@H](c3ccc(=O)oc3)CC[C@]12O` [GAMABUFOTALIN] the Activity [5] was “Dose-Dependent Effect”, the Activity [6] was “Active” and the Activity [7] was 6.6%. For the same compound, the Activity [8] was “Active”, the Activity [9] was “Active” and the viability at 0.025 µM [10] was 65.4%. The Activity [11] was “Active”, the Activity [12] was “Active” and the Activity [13] was “Active”. For the same compound, the Activity [14] was 8.7%, the Activity [15] was “Active” and the Activity [16] was 0.5%. The Activity [17] was 5.2%, the Activity [18] was “Active” and the Activity [19] was 1.2%. For the same compound, the Activity [20] was “Active”, the Activity [21] was “Active” and the Activity [22] was “Active”. For the same compound, the Activity [23] was “Active”, the Activity [24] was 57.1% and the viability at 0.025 µM [25] was 76.8%. The viability at 0.02 µM [26] was 88.7%, the Activity [27] was “Active” and the IC50 [28] was 27 nM. For the same compound, the Activity [29] was “Active”, the Activity [30] was “Active” and the Activity [31] was “Active”. It also gave an Activity [32] of 6.3%, a viability at 0.025 µM [33] of 79.6% and a viability at 0.015 µM [34] of 88.2%.
